Measured values as given in PMC5936713, “Structural and functional studies of Spr1654: an essential aminotransferase in teichoic acid biosynthesis in Streptococcus pneumoniae” (Open Biology, 2018).

Experiments:
[1] = molecular target: T1, Spr1654 (Streptococcus pneumoniae, UniProt A0A0H2URM1); test: transamination half-reaction, PLP ([…] nm) to PMP ([…] nm) absorbance; type: biochemical; settings: 0.5 mM L-glutamate, Spr1654/PLP 0.9 mg/ml, 50 mM MES pH 6.6, 200 mM NaCl, 25 °C; amino donor
T1 construct: gene SP_1837; full-length, C-terminal His6 tag (pET-23b), expressed in E. coli T7 Express; homodimer; residues Tyr4-Thr404 seen in crystals

[2] = molecular target: T1, Spr1654; test: X-ray crystal structure, […] Å; absorption spectroscopy ([…] nm); type: binding; settings: covalent; internal aldimine with Lys199; 1 mM PLP preincubated, pH 7.5
[3] = molecular target: T1, Spr1654; test: X-ray crystal structure, […] Å; type: binding; settings: PMP formed by adding L-glutamate to the PLP complex before crystallization; active site
[4] = molecular target: Spr1654 aminotransferase from Streptococcus pneumoniae, full length with C-terminal poly-histidine (Streptococcus pneumoniae) (UniProt Q8DNL6); test: SEC; Superdex200 Increase 10/300 GL gel filtration, 20 mM Tris-HCl pH 7.5, 200 mM NaCl, 4°C; oligomeric state from the elution profile

N[C@@H](CCC(=O)O)C(=O)O [E, L-glutamate]
transamination half-reaction, PLP (420 nm) to PMP (330 nm) absorbance [1]: Spr1654 is able to deaminate L-glutamate in the first half-reaction of transamination with high efficiency

Cc1ncc(COP(=O)(O)O)c(C=O)c1O [PLP]
X-ray crystal structure, 2.2 Å; absorption spectroscopy (420 nm) [2]: Clear electron density confirms the formation of a covalent bond between PLP and residue Lys199

Cc1ncc(COP(=O)(O)O)c(CN)c1O [PMP]
X-ray crystal structure, 2.4 Å [3]: In the crystal structure of the Spr1654/PMP complex, the phosphate group serves as the main anchor

Spr1654 aminotransferase from Streptococcus pneumoniae, full length with C-terminal poly-histidine (from UniProt Q8DNL6 1-417) (enzyme)
stoichiometry N [4]: 2
